One series has as its system two-spotted spider mites. The experiment in a line: Miticidal test on two-spotted spider mites (seedling dip). Format: in vivo, Tetranvchus urticae. The conditions noted are these: Glycine max, 312 h, read-out: protective value. In short, it runs like this:
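Soybean seedlings carrying adult mites were dipped in wettable-powder dilution at 500 ppm active ingredient, air-dried, and held at 25° C for 13 days. Live mites were counted and a protective value calculated.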

A further series deals with cotton bollworm. The experiment in a line: Insecticidal test on cotton bollworm. Format: in vivo. To be noted: Helicoverpa armigera, 144 h. On the procedure: A wettable powder prepared in accordance with Formulation Example 2 was diluted with water to a concentration of an active ingredient of 500 ppm. Cabbage leaves were dipped in this solution and dried in air and then put in a plastic cup having a capacity of 60 mL. Five hatched larvae of cotton bollworm were released in the cup, and the cup was lidded and placed in a thermostatic chamber at 25° C. for 6 days, and the number of dead larvae were assessed for calculation of the mortality by Equation 2. The test was carried out by two series system.

The subject of series [1] is southern root-knot nematodes. In words: Nematicidal test on root-knot nematode. It is filed as in vivo. The conditions noted are these: Meloidogyne incognita, 120 h. How it is done: A compound to be tested was dissolved in N,N-dimethylformamide containing 1 mass % of tween 20, and this solution was diluted with distilled water to a concentration of an active ingredient of 20 ppm. 0.5 mL of the solution was mixed with 0.5 mL of a suspension containing about 30 second-instar larvaes of southern root-knot nematodes, and the mixture was placed in a thermostatic chamber at 25° C. for 5 days. The number of dead nematodes and the number of live nematodes were assessed by a microscope for calculation of the mortality by Equation 3. The test was carried out by two series system.

The subject of a further series is diamondback moth. The experiment in a line: Insecticidal test on diamondback moth. Format: in vivo. The conditions noted are these: Plutella xylostella, 144 h. In short, it runs like this:
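Cabbage leaves were dipped in a wettable-powder dilution at 500 ppm active ingredient, air-dried and given 10 second-instar larvae per cup. Mortality was counted after 6 days at 25 °C, in a single series.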

The subject of series [2] is cotton aphid. In words: Insecticidal test on cotton aphid (seedling dip). Format: in vivo. To be noted: Aphis gossypii, in Cucumis sativus, 72 h. In short, it runs like this: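 Cucumber seedlings carrying cotton aphid larvae were dipped in a water-diluted wettable powder at 500 ppm active ingredient, then air-dried. After 3 days at 25° C. live insects were counted and mortality calculated; single series.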

Another series deals with brown rice planthopper. The experiment in a line: Insecticidal test on brown rice planthopper. Format: in vivo. The conditions noted are these: 144 h. In short, it runs like this:
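Rice sprouts dipped in 500 ppm active ingredient (water-diluted wettable powder), then exposed to ten third-instar brown rice planthopper larvae. Held at 25° C. for 6 days; dead larvae counted for mortality, single series.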

In series [3] the test system is cotton aphid. The experiment in a line: Insecticidal test on cotton aphid (root zone irrigation). It is filed as in vivo. To be noted: Aphis gossypii, in Cucumis sativus, 72 h. How it is done:
A wettable powder prepared in accordance with Formulation Example 2 was diluted with water to a concentration of an active ingredient of 100 ppm. The root zone of cucumber seedlings which had been inoculated with larvae of cotton aphid was irrigated with 5 mL of the solution. The treated cucumber seedlings were placed in a thermostatic chamber at 25° C. for 3 days, and the live insects were counted for calculation of the mortality by Equation 2. The test was carried out by one series system.

Where [4] appears, read: 500 ppm active ingredient, soybean seedlings with imago mites dipped, 25° C., 13 days.

Read-outs that look alike come from different tables or passages of the source.

With `C#CCNc1cc(OCC(F)(F)C(F)(F)F)nn1-c1cc([S+]([O-])CC(F)(F)F)c(C)cc1F` (stereo not shown) [1-162, 1-{2-fluoro-4-methyl-5-(2,2,2-trifluoroethylsulfinyl)phenyl}-3-(2,2,3,3,3-pentafluoropropoxy)-5-(2-propynylamino)pyrazole], in the series with two-spotted spider mites (setting [4]), the pest or weed control at 500 ppm is at least 90%. The mortality at 500 ppm with cotton bollworm (in Brassica oleracea), with diamondback moth (in Brassica oleracea) and in the series on cotton aphid [2] was at least 90% throughout. Besides, the mortality (usually the share of the test organisms that died) at 20 ppm in series [1] is at least 90%.
As for `Cc1cc(F)c(-n2nc(OCC(F)(F)C(F)(F)F)cc2C)cc1[S+]([O-])CC(F)(F)F` (stereo not shown) [1-92, 1-{2-fluoro-4-methyl-5-(2,2,2-trifluoroethylsulfinyl)phenyl}-5-methyl-3-(2,2,3,3,3-pentafluoropropoxy)pyrazole], the pest or weed control at 500 ppm with two-spotted spider mites (setting [4]) is at least 90%. In series [1], this molecule displayed a mortality at 20 ppm of at least 90%. The mortality at 500 ppm with brown rice planthopper and in the series on cotton aphid [2] was at least 90% throughout.
As for `CCOC(=O)c1cc(OCC(F)(F)C(F)(F)F)nn1-c1cc(SCC(F)(F)F)c(C)cc1F` [1-143, ethyl 1-{2-fluoro-4-methyl-5-(2,2,2-trifluoroethylthio)phenyl}-3-(2,2,3,3,3-pentafluoropropoxy)pyrazole-5-carboxylate], the melting point (usually the temperature of the solid-liquid transition) lay in the range of 81 to 84 °C.
On the same count and under the same terms, the value for `Cc1cc(F)c(-n2nc(OCC(F)(F)C(F)(F)F)cc2CC(N)=O)cc1SCC(F)(F)F` [1-139, 1-{2-fluoro-4-methyl-5-(2,2,2-trifluoroethylthio)phenyl}-3-(2,2,3,3,3-pentafluoropropoxy)pyrazole-5-carboxyamide] was 102 to 104 °C.
The molecule `Cc1cc(F)c(-n2cc(C#N)c(OC(F)(F)C(F)OC(F)(F)F)n2)cc1SCC(F)(F)F` (stereo not shown) [1-1587, 4-cyano-1-{2-fluoro-4-methyl-5-(2,2,2-trifluoroethylthio)phenyl}-3-{1,1,2-trifluoro-2-(trifluoromethoxy)ethoxy}pyrazole] yielded a melting point of 57 to 58 °C. Besides, the pest or weed control at 500 ppm with two-spotted spider mites (setting [4]) was at least 90%.
On to `CNc1cc(OC(F)(F)C(F)OC(F)(F)C(F)(F)C(F)(F)F)nn1-c1cc([S+]([O-])CC(F)(F)F)c(C)cc1F` (stereo not shown) [1-348, 1-{2-fluoro-4-methyl-5-(2,2,2-trifluoroethylsulfinyl)phenyl}-5-methylamino-3-{1,1,2-trifluoro-2-(heptafluoropropoxy)ethoxy}pyrazole], for which the pest or weed control at 500 ppm with two-spotted spider mites was at least 90%. The mortality at 500 ppm was at least 90% in the series with cotton bollworm (500 ppm active ingredient, cabbage leaves dipped, hatched larvae, 25° C., 6 days, read-out: mortality) and at least 90% in the series with diamondback moth (500 ppm active ingredient, cabbage leaves dipped, second-instar larvae, 25° C., 6 days, read-out: mortality). This molecule also showed a mortality at 20 ppm in series [1] of at least 90%.
Turning to `CC(=O)Nc1cc(OC(F)(F)C(F)OC(F)(F)F)nn1-c1cc(SCC(F)(F)F)c(C)cc1F` (stereo not shown) [1-15, 5-acetylamino-1-{2-fluoro-4-methyl-5-(2,2,2-trifluoroethylthio)phenyl}-3-{1,1,2-trifluoro-2-(trifluoromethoxy)ethoxy}pyrazole], in the series on two-spotted spider mites (setting [4]), the pest or weed control at 500 ppm was at least 90%. Besides, the mortality at 500 ppm with cotton bollworm (in Brassica oleracea), in the series on brown rice planthopper, in the series with diamondback moth (in Brassica oleracea) and in the series with cotton aphid [2] was at least 90% each time.
For the molecule `CC(=O)Nc1cc(OCC(F)(F)C(F)(F)F)nn1-c1cc([S+]([O-])CC(F)(F)F)c(C)cc1F` (stereo not shown) [1-18, 5-acetylamino-1-{2-fluoro-4-methyl-5-(2,2,2-trifluoroethylsulfinyl)phenyl}-3-(2,2,3,3,3-pentafluoropropoxy)pyrazole], the pest or weed control at 500 ppm in the series with two-spotted spider mites (setting [4]) was at least 90%. Besides, the mortality at 500 ppm with cotton bollworm (in Brassica oleracea), in the series on brown rice planthopper, in the series with diamondback moth (in Brassica oleracea) and with cotton aphid [2] was at least 90% each time. For the same molecule, in the series on cotton aphid [3], the mortality at 100 ppm is at least 90%.

These data come from patent US8802713B2, “3-alkoxy-1-phenylpyrazole derivatives and pesticides” (Kumiai Chemical Industry Co., Ltd., priority 2007, dated 2014).
